In PubChem BioAssay (NCI):
Values joined by “and” are separate entries in the source; they are usually repeats but may differ in a detail not shown here. Equal values may be shown once.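 Method: 48-hour compound exposure of cells in 96-well plates, five concentrations, linear interpolation of endpoints. The concentration for 50% growth inhibition is given as GI50. TGI marks complete inhibition of growth.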 Where a SMILES comes first, the peptide text is derived from it. [ ]: non-standard residue; d: D form. The star is where a group is joined. AllylGly = C=CC[CH](N)C(=O)O; Boc = CC(C)(C)OC(=O)*; OtBu = CC(C)(C)O*

Columns and labels:
Experiment in all cases: inhibition of tumour cell growth, NCI panel, 48 h
HS 578T breast = system: HS 578T breast
HOP-92 NSCLC = system: HOP-92 NSCLC
PC-3 prostate = system: PC-3 prostate
OVCAR-3 ovarian = system: OVCAR-3 ovarian
RPMI-8226 leukemia = system: RPMI-8226 leukemia
MOLT-4 leukemia = system: MOLT-4 leukemia
SF-295 CNS = system: SF-295 CNS
UACC-62 melanoma = system: UACC-62 melanoma
IGROV1 ovarian = system: IGROV1 ovarian
CAKI-1 renal = system: CAKI-1 renal
NCI-H23 lung = system: NCI-H23 lung

SMILES	TGI (HS 578T breast)	TGI (HOP-92 NSCLC)	TGI (PC-3 prostate)	TGI (OVCAR-3 ovarian)	TGI (RPMI-8226 leukemia)	TGI (MOLT-4 leukemia)	TGI (SF-295 CNS)	TGI (UACC-62 melanoma)	TGI (IGROV1 ovarian)	TGI (CAKI-1 renal)	TGI (NCI-H23 lung)	GI50 (HOP-92 NSCLC)	GI50 (MOLT-4 leukemia)	GI50 (CAKI-1 renal)
CN(C)CCNc1ccc2c(=O)n(CCN(C)C)c(=O)n3c4ccc([N+](=O)[O-])cc4c(=O)c1c23	3.09 µM	3.33 µM	2.43 µM	2.27 µM	0.605 µM	0.0685 µM	2.31 µM	3.17 µM	1.29 µM	10.2 µM	0.777 µM	–	–	–
Cc1cc(C)nc(NS(=O)(=O)c2ccc(Nc3c4ccccc4nc4c(C(=O)NCCCN(CCO)CCO)cccc34)cc2)n1	65.5 µM	> 100 µM	> 100 µM	> 100 µM	79.6 µM	> 100 µM	> 100 µM	60.4 µM	> 100 µM	> 100 µM	> 100 µM	–	–	–
Cc1[nH]c(=O)nc(N/N=C/c2ccc(Cl)cc2)c1C(=O)NC(C)(CO)CO	> 100 µM	> 100 µM	> 100 µM	> 100 µM	> 100 µM	> 100 µM	> 100 µM	> 100 µM	> 100 µM	> 100 µM	> 100 µM	–	–	–
CC(=O)C(=[N+]=[N-])C(=O)OC(C)(C)C#N	> 10 µM	> 10 µM	> 10 µM	> 10 µM	> 10 µM	> 10 µM	> 10 µM	> 10 µM	> 10 µM	> 10 µM	> 10 µM	–	–	–
C[C@H](Nc1c(O)c2c(c(O)c1Cl)C(=O)C=CC2=O)C(=O)Nc1ccc([N+](=O)[O-])cc1	> 10 µM	5.16 µM	8.89 µM	2.75 µM	> 10 µM	> 10 µM	7.54 µM	6.16 µM	4.22 µM	> 10 µM	4.45 µM	–	–	–
O=C1C(CN2CCCCC2)CCCC1CN1CCCCC1 (centres undefined)	72.3 µM	18.4 µM and 5.93 µM	29.8 µM	32.1 µM and 34 µM	13.1 µM	> 65.6 µM and 12 µM	> 100 µM	> 67.9 µM	> 100 µM	26.2 µM and 11.9 µM	> 68.4 µM and 55.8 µM	7.52 µM and 2.89 µM	10.9 µM and 4.27 µM	13 µM and 5.2 µM
S=C(N/N=C(/c1ccccc1)c1ccccn1)Nc1ccccc1Cl	24 µM	11 µM	13.3 µM	11.2 µM	> 7.31 µM	1.02 µM	7.29 µM	14.6 µM	7.84 µM	11.5 µM	16.7 µM	–	–	–
O=C(/C=C/c1ccc(Cl)cc1)Oc1ccc(/C=C2\CCCCC2=O)cc1	> 100 µM	> 100 µM	> 100 µM	> 100 µM	> 100 µM	73.9 µM	> 100 µM	> 100 µM	> 100 µM	> 100 µM	> 100 µM	–	–	–
C=CCC(NC(=O)C(CC(=O)OC(C)(C)C)NC(=O)OC(C)(C)C)C(=O)OC (centres undefined) (Boc-Asp(OtBu)-[AllylGly]-OMe; configuration not given here)	> 100 µM	> 100 µM	> 100 µM	61.4 µM	> 84.6 µM	> 91.6 µM	> 100 µM	> 100 µM	> 100 µM	> 100 µM	> 100 µM	–	–	–
Cc1c(CCOC=O)c(=O)[nH]c2nncn12	> 100 µM	> 100 µM	> 100 µM	> 100 µM	> 100 µM	> 100 µM	> 100 µM	> 100 µM	> 100 µM	–	> 100 µM	–	–	–
CC(C)(C)c1ccc(-c2nc3ccc([N+](=O)[O-])cc3c(=O)o2)cc1	80.8 µM	55.2 µM	72.5 µM	81.1 µM	> 100 µM	46.4 µM	76.4 µM	79.3 µM	> 100 µM	> 100 µM	78.7 µM	–	–	–
CC1(C)CC[C@]2(C)CC=C3[C@]4(C)CC[C@H]5C(C)(C)C(=O)CC[C@]5(C)[C@H]4CC[C@@]3(C)[C@H]2C1	> 100 µM	> 100 µM	> 100 µM	> 100 µM	> 100 µM	> 100 µM	> 100 µM	> 100 µM	> 100 µM	> 100 µM	> 100 µM	–	–	–
C[C@]12CC[C@@H]3c4cc(OCC(F)(F)F)c(O)cc4C(=O)C[C@H]3[C@@H]1CC[C@@H]2O	43.9 µM	> 100 µM	> 67.7 µM	7.59 µM	> 100 µM	> 100 µM	15.4 µM	> 100 µM	> 100 µM	> 100 µM	> 100 µM	–	–	–
CC1(C2(C)OC(=O)c3ccccc32)OC(=O)c2ccccc21 (centres undefined)	> 100 µM	> 100 µM	> 100 µM	> 100 µM	> 100 µM	> 100 µM	> 100 µM	> 100 µM	> 100 µM	> 100 µM	> 100 µM	–	–	–
O=P(Oc1ccccc1)(Oc1ccccc1)Oc1c[nH]c2ccccc12	40.8 µM	7.15 µM	8.26 µM	39.1 µM	1.54 µM	46.6 µM	13.1 µM	22 µM	20.7 µM	23.4 µM	25.8 µM	–	–	–
Clc1ccc(Oc2ccc(N=Cc3ccc(Cl)cc3Cl)cc2Cl)cc1	71.1 µM	> 100 µM	> 100 µM	> 100 µM	> 100 µM	> 100 µM	> 100 µM	> 100 µM	> 100 µM	> 100 µM	> 100 µM	–	–	–
CCCCCNc1nonc1N	> 100 µM	> 100 µM	> 100 µM	> 100 µM	> 100 µM	> 100 µM	> 100 µM	> 100 µM	> 100 µM	> 100 µM	> 100 µM	–	–	–
